Where only a bound is given, the exact number is not on record here.

For one data set, the system named is HeLa cells. Kind of data set: Intracellular Tz accumulation by fluorescence liberation from TCO-CMR, HeLa cells. It is filed as cell-based. As for the experimental part:
Next, we tested the intracellular accumulation of Tz via EISA in an attempt to differentiate cancer cells from normal cells. First, we investigated the accumulation of Tz in HeLa cells and HUVECs over time via fluorescence liberation from TCO-CMR (Fig. 3a). […] The cells were then washed with PBS thoroughly before the addition of an excessive amount of TCO-CMR (100 μL, 50 μM), and the reaction of TCO-CMR with the intracellular accumulated Tz was allowed to proceed for up to 24 h (Supplementary Fig. 8). In this experimental setting, the total liberated fluorescence was proportional to the amount of 3 accumulated inside the cells. […] Therefore, the optimized concentration of 2 (e.g. 500 μM) and incubation time (e.g. 6 h) were selected to differentiate between cancer and normal cells according to liberated fluorescence intensity (Fig. 3c). This differentiation was dependent on the considerably different phosphatase activity between these cell lines (Supplementary Fig. 11), allowing EISA to specifically occur in cancer cells as opposed to normal cells.
All cells were purchased from the National Infrastructure of Cell Line Resource (Beijing, China). HeLa cells, HUVECs and CCC-HEH-2 cells were cultured in a humidified CO2 (5%) incubator at 37 °C in DMEM supplemented with 10% foetal bovine serum (FBS, Gibco) and 1% Pen Strep (PS, Gibco). Saos-2 cells were cultured in a humidified CO2 (5%) incubator at 37 °C in McCoy’s 5A medium supplemented with 10% FBS and 1% PS. Cells were plated in flat-bottom 96-well plates (Corning) at a density of 10^4 cells per well and allowed to attach for 12 h. Then, the culture medium was replaced with 100 μL of pre-warmed medium containing 2 at different concentrations (100–500 μM). After incubation for different durations (1–24 h), the cells were rinsed with PBS, and then 100 μL of 50 μM TCO-CMR (dissolved in PBS) was added for real-time detection of the fluorescence intensity of coumarin in a plate reader (Perkin Elmer).

Data set [1] in a line: Self-assembly and hydrogelation on addition of alkaline phosphatase (ALP). It is filed as physicochemical. As for the experimental part:
The synthesis of the assembly precursor (NapK(Tz)YpF, 2, Fig. 2a) was straightforward (see Supplementary Methods for a detailed protocol). Because KYF was determined to be an excellent self-assembly motif in a tri-peptide census survey, we constructed our assembling molecules based on this sequence. The conjugation of a strong π–π stacking moiety, namely, a naphthalene group, to the N terminus may further enhance the self-assembly potential of this molecule. Phosphorylation on tyrosine (Y) enabled the responsiveness of this motif to phosphatase. All of these components were sequentially conjugated via typical Fmoc-based solid-phase peptide synthesis (SPPS) to yield NapKYpF (1). The capability of self-assembly and hydrogelation of 1 was confirmed by the addition of 10 U mL^−1 alkaline phosphatase (ALP) into a solution of 1 (Supplementary Fig. 1). The dephosphorylated product of 1 formed transparent hydrogels with a network of uniform nanofibres (Supplementary Fig. 2), and the critical hydrogelation concentration was 1.0 mg mL^−1. The ε-amine of Lys on 1 was conjugated with the Tz derivative Tz-COOH (2-(4-(6-methyl-1,2,4,5-tetrazin-3-yl)phenyl) acetic acid) via an NHS-mediated ester–amide exchange reaction to yield 2. […] Upon the addition of ALP (10 U mL^−1) into the solution of 2, a transparent purple hydrogel was formed within 1 h (Fig. 2b inset), and the critical hydrogelation concentration was 1.0 mg mL^−1 (Supplementary Fig. 3). Similar to the formation of a typical hydrogel, investigation by transmission electron microscopy (TEM) confirmed the existence of numerous uniform nanofibres, each with a diameter of approximately 12 nm, which was close to that of hydrogel 1 (Fig. 2b).

A further data set relates to HeLa tumours. In words: Tumour inhibition test, subcutaneous HeLa xenograft. It is filed as in vivo, BALB/c nude mice. As for the experimental part: All animal studies were performed in accordance with the Institutional Animal Use and Care Regulations approved by the National Institutes of Health Clinical Center/Animal Care and Use Committee (NIH CC/ACUC). Athymic female nude mice (5–6 weeks old) were purchased from Beijing Huafukang Bioscience Co., Ltd., and raised in a specific-pathogen-free barrier facility. Tumour-bearing mice were established by subcutaneously injecting a suspension of 10^6 HeLa cells per mouse into the front flank of each nude mouse.
After 14 days, the mice were sacrificed.

As for `Cc1nnc(-c2ccc(CC(=O)NCCCCC(NC(=O)Cc3ccc4ccccc4c3)C(=O)NC(Cc3ccc(OP(=O)(O)O)cc3)C(=O)NC(Cc3ccccc3)C(=O)O)cc2)nn1` (stereo not drawn) [compound 2, NapK(Tz)YpF], the “incubation time at which liberated fluorescence reaches maximum value” with HeLa cells (500 μM 2, then 50 μM TCO-CMR) is on record as “approximately 6 h”. Also, the “fluorescence emission of liberated coumarin in HeLa cells” value with HeLa cells (pre-incubated with 400 or 500 μM 2) is reported as “increased significantly”. In addition, the “time to formation of hydrogel” value in data set [1] (ALP 10 U mL^−1) is at most 1 h. In data set [1] (after addition of 10 U mL^−1 ALP (dephosphorylated product)), this molecule had a critical hydrogelation concentration of 1.0 mg/mL. For the same molecule, in the data set with HeLa tumours (after treatment for 14 days), the “histological examination of dissected tumours (HE staining)” value was “the HeLa cells remained normal”. Also, the tumour growth result in the data set with HeLa tumours (i.v., three courses (day 0, 3, 6), 50 mg kg^−1 2, 30 mg kg^−1 TCO-Dox, 5 mg kg^−1 Dox, or 50 mg kg^−1 2 then 30 mg kg^−1 TCO-Dox after 2 h) was “rapid growth similar to that observed in the saline control group”.

The values are drawn from paper PMC6261997, “Synergistic enzymatic and bioorthogonal reactions for selective prodrug activation in living systems” (Nature Communications, 2018).
